Experimental data from US8883782B2, “Spiro-tetracyclic ring compounds as beta-secretase modulators and methods of use” (Amgen Inc., priority 2010, dated 2014).
Where two headings read alike, the source gives them in different places.

Key:
[1] = target: Beta Secretase enzyme (BACE) (Homo sapiens, UniProt P56817); assay: In vitro enzymatic BACE FRET (fluorescence resonance energy transfer) assay; type: biochemical; settings: average IC50, enzyme assay; read-out: BACE 1 FRET assay
Procedure, shortened: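 Fluorescence read after Tris quench (pH raised to neutrality) of a one-hour BACE reaction. Buffer: acetate 0.05 M, pH 4.2, with 100 uM genapol and 10% DMSO final; started by adding 50 nM FRET peptide substrate spanning the cleavage site.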

[2] = system: Aβ40 in conditioned medium of cells stably expressing Amyloid Precursor Protein (APP); assay: In vitro BACE cell-based assay (Aβ40 in conditioned medium, sandwich ELISA); settings: read-out: HEK cell assay
Procedure, shortened: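 Step two: 10-point compound titration added, starting 100 μM or 10 μM, 0.1% DMSO. Step three: medium Aβ40 measured by ELISA, capture 3 h and detection 2 h at 4° C, TRF read.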

[3] = Homo sapiens, HEK293, average IC50, HEK cells

Beta Secretase enzyme (BACE), sequence (P56817 46-501, species assumed): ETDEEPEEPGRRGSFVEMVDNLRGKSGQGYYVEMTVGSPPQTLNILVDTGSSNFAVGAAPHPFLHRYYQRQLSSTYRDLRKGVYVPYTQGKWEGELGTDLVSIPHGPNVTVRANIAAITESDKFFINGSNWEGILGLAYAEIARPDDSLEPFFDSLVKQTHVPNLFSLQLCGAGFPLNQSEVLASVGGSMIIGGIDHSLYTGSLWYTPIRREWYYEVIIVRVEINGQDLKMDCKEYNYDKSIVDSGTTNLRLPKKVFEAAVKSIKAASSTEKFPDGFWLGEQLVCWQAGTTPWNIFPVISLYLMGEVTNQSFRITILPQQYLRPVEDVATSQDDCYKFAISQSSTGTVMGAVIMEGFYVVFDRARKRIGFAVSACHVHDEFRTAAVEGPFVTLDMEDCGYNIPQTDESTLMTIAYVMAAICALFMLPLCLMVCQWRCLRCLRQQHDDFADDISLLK

| SMILES | IC50 [1] [nM] | IC50 [2, 3] [nM] | IC50 ([2]; average IC50, HEK cells) [nM] |
| --- | --- | --- | --- |
| NC1=N[C@]2(CO1)c1cc(-c3cccnc3F)c(F)cc1Oc1ncc(-c3ccc(F)nc3)cc12 [Example 897, (5R)-8-fluoro-7-(2-fluoro-3-pyridinyl)-3-(6-fluoro-3-pyridinyl)spiro[chromeno[2,3-b]pyridine-5,4′-[1,3]oxazol]-2′-amine] | 175 | 6360 | – |
| NC1=N[C@@]2(CO1)c1cc(-c3cccnc3F)ccc1Oc1nc(F)c(I)cc12 [Example 898, (5S)-2-fluoro-7-(2-fluoro-3-pyridinyl)-3-iodospiro[chromeno[2,3-b]pyridine-5,4′-[1,3]oxazol]-2′-amine] | 10600 | ≥ 10000 | – |
| NC1=N[C@]2(CO1)c1cc(-c3cccnc3F)ccc1Oc1nc(F)c(I)cc12 [Example 899, (5R)-2-fluoro-7-(2-fluoro-3-pyridinyl)-3-iodospiro[chromeno[2,3-b]pyridine-5,4′-[1,3]oxazol]-2′-amine] | 40000 | ≥ 10000 | – |
| CC1(C#Cc2cc3c(nc2F)Oc2ccc(-c4cccnc4F)cc2[C@]32COC(N)=N2)COC1 [Example 900, (5R)-2-fluoro-7-(2-fluoro-3-pyridinyl)-3-((3-methyl-3-oxetanyl)ethynyl)spiro[chromeno[2,3-b]pyridine-5,4′-[1,3]oxazol]-2′-amine] | 48.1 | 1160 | – |
| NC1=N[C@]2(CO1)c1cc(-c3cccnc3F)ccc1Oc1nc(F)c(C3=CCCOC3)cc12 [Example 902, (5R)-3-(5,6-dihydro-2H-pyran-3-yl)-2-fluoro-7-(2-fluoro-3-pyridinyl)spiro[chromeno[2,3-b]pyridine-5,4′-[1,3]oxazol]-2′-amine] | 137 | 3220 | – |
| NC1=N[C@@]2(CO1)c1cc(-c3cccnc3F)ccc1Oc1nc(F)c(C3=CCCOC3)cc12 [Example 903, (5S)-3-(5,6-dihydro-2H-pyran-3-yl)-2-fluoro-7-(2-fluoro-3-pyridinyl)spiro[chromeno[2,3-b]pyridine-5,4′-[1,3]oxazol]-2′-amine] | 1.4 | 49 | – |
| NC1=N[C@]2(CO1)c1cc(-c3cccnc3F)ccc1Oc1nc(F)c(N3CCOCC3)cc12 [Example 904, (5R)-2-fluoro-7-(2-fluoro-3-pyridinyl)-3-(4-morpholinyl)spiro[chromeno[2,3-b]pyridine-5,4′-[1,3]oxazol]-2′-amine] | 269 | ≥ 10000 | – |
| CC1(C#Cc2cc3c(nc2F)Oc2ccc(-c4ccc(F)nc4)cc2[C@]32COC(N)=N2)COC1 [Example 905, (5R)-2-fluoro-7-(6-fluoro-3-pyridinyl)-3-((3-methyl-3-oxetanyl)ethynyl)spiro[chromeno[2,3-b]pyridine-5,4′-[1,3]oxazol]-2′-amine] | 126 | 3110 | – |
| CC1(C#Cc2cc3c(nc2F)Oc2ccc(-c4cncc(F)c4)cc2[C@]32COC(N)=N2)COC1 [Example 906, (5R)-2-fluoro-7-(5-fluoro-3-pyridinyl)-3-((3-methyl-3-oxetanyl)ethynyl)spiro[chromeno[2,3-b]pyridine-5,4′-[1,3]oxazol]-2′-amine] | 54.2 | 1490 | – |
| CC1(C#Cc2cc3c(nc2F)Oc2ccc(-c4cncc(F)c4)cc2[C@@]32COC(N)=N2)COC1 [Example 907, (5S)-2-fluoro-7-(5-fluoro-3-pyridinyl)-3-((3-methyl-3-oxetanyl)ethynyl)spiro[chromeno[2,3-b]pyridine-5,4′-[1,3]oxazol]-2′-amine] | 1.1 | 23 | – |
| CC(C)(C)COc1ccc2c(c1)[C@]1(COC(N)=N1)c1cc(C3=CCCOC3)ccc1O2 [Example 910, (4S)-2′-(5,6-dihydro-2H-pyran-3-yl)-7′-(2,2-dimethylpropoxy)spiro[1,3-oxazole-4,9′-xanthen]-2-amine] | 22.3 | 1770 | – |
| CC(C)(C)COc1ccc2c(c1)C1(COC(N)=N1)c1cc(C3CCCOC3)ccc1O2 [Example 911, (4S)-2′-(2,2-dimethylpropoxy)-7′-((3R)-tetrahydro-2H-pyran-3-yl)spiro[1,3-oxazole-4,9′-xanthen]-2-amine, (4S)-2′-(2,2-dimethylpropoxy)-7′-((3S)-tetrahydro-2H-pyran-3-yl)spiro[1,3-oxazole-4,9′-xanthen]-2-amine] | 19.2 | 1290 | – |
| NC1=N[C@@]2(CO1)c1cc(-c3c(F)ccnc3F)ccc1Oc1cnc([C@@H]3CCCOC3)cc12 [Example 912, (5S)-7-(2,4-difluoro-3-pyridinyl)-3-((3S)-tetrahydro-2H-pyran-3-yl)spiro[chromeno[2,3-c]pyridine-5,4′-[1,3]oxazol]-2′-amine] | 25.1 | 338 | – |
| NC1=N[C@@]2(CO1)c1cc(-c3c(F)ccnc3F)ccc1Oc1cnc([C@H]3CCCOC3)cc12 [Example 913, (5S)-7-(2,4-difluoro-3-pyridinyl)-3-((3R)-tetrahydro-2H-pyran-3-yl)spiro[chromeno[2,3-c]pyridine-5,4′-[1,3]oxazol]-2′-amine] | 16.1 | 211 | – |
| NC1=N[C@@]2(CO1)c1cc(-c3c(F)ccnc3F)ccc1Oc1cnc([C@H]3CCCCO3)cc12 [Example 914, (5S)-7-(2,4-difluoro-3-pyridinyl)-3-((2R)-tetrahydro-2H-pyran-2-yl)spiro[chromeno[2,3-c]pyridine-5,4′-[1,3]oxazol]-2′-amine] | 13.5 | – | 102 |
| NC1=N[C@@]2(CO1)c1cc(-c3c(F)ccnc3F)ccc1Oc1cnc([C@@H]3CCCCO3)cc12 [Example 915, (5S)-7-(2,4-difluoro-3-pyridinyl)-3-((2S)-tetrahydro-2H-pyran-2-yl)spiro[chromeno[2,3-c]pyridine-5,4′-[1,3]oxazol]-2′-amine] | 2.5 | 23 | – |
| NC1=N[C@@]2(CO1)c1cc(-c3cccnc3F)ccc1Oc1c2cc(N2CC[C@H](F)C2)nc1F [Example 917, (5S)-1-fluoro-7-(2-fluoro-3-pyridinyl)-3-((3S)-3-fluoro-1-pyrrolidinyl)spiro[chromeno[2,3-c]pyridine-5,4′-[1,3]oxazol]-2′-amine] | 0.3 | 5 | – |
| NC1=N[C@@]2(CO1)c1cc(-c3cccnc3F)ccc1Oc1c2cc(N2CCC(F)(F)C2)nc1F [Example 918, (S)-3-(3,3-difluoropyrrolidin-1-yl)-1-fluoro-7-(2-fluoropyridin-3-yl)-5′-H-spiro[chromeno[2,3-c]pyridine-5,4′-oxazol]-2′-amine] | 0.2 | 4 | – |
| N#Cc1cccc(-c2ccc3c(c2)[C@@]2(COC(N)=N2)c2cc(N4CC[C@@H](F)C4)nc(F)c2O3)c1 [Example 919, 3-((5S)-2′-amino-1-fluoro-3-((3R)-3-fluoro-1-pyrrolidinyl)spiro[chromeno[2,3-c]pyridine-5,4′-[1,3]oxazol]-7-yl)benzonitrile] | 0.4 | 6 | – |
| N#Cc1cccc(-c2ccc3c(c2)[C@@]2(COC(N)=N2)c2cc(N4CCC(F)(F)C4)nc(F)c2O3)c1 [Example 920, 3-((5S)-2′-amino-3-(3,3-difluoro-1-pyrrolidinyl)-1-fluorospiro[chromeno[2,3-c]pyridine-5,4′-[1,3]oxazol]-7-yl)benzonitrile] | 0.2 | 12 | – |
| NC1=N[C@@]2(CO1)c1cc(-c3cncc(F)c3)ccc1Oc1c2cc(N2CC[C@@H](F)C2)nc1F [Example 921, (5S)-1-fluoro-7-(5-fluoro-3-pyridinyl)-3-((3R)-3-fluoro-1-pyrrolidinyl)spiro[chromeno[2,3-c]pyridine-5,4′-[1,3]oxazol]-2′-amine] | 0.5 | 6 | – |
